Some test systems named below: SF-268 CNS; MOLT-4 leukemia; UACC-62 melanoma; OVCAR-4 ovarian; UO-31 renal; COLO 205 colon; SR leukemia; SN12C renal; A549 NSCLC; U251 CNS.
Assay in all cases: growth of human tumour cells (NCI), 48 h

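96-well plates; 48 h exposure; 5 concentrations. Endpoints by linear interpolation between flanking doses. Not reached: highest tested concentration assigned. Abbreviation: GI50, concentration required for 50% inhibition of growth. TGI: total growth inhibition.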 A value given as a limit tells only on which side of the number the result lay.

In the case of `O=c1[nH]c2cc([N+](=O)[O-])ccc2nc1/C(=N/Nc1ccccc1)C(O)c1ccc(C(O)/C(=N\Nc2ccccc2)c2cnc3cc([N+](=O)[O-])ccc3n2)cc1` (stereo unspecified), the TGI in the assay with SF-268 CNS, in the assay with MOLT-4 leukemia, in the assay on UACC-62 melanoma, in the assay with OVCAR-4 ovarian, with UO-31 renal and in the assay on COLO 205 colon was > 100 µM throughout. The TGI with SR leukemia, in the assay on SN12C renal and with A549 NSCLC was > 100 µM throughout.

Consider `Cc1nn(C(=O)c2ccncc2)c2c1C(c1ccccc1)SC(N)=N2` (stereo unspecified), for which the TGI with SF-268 CNS, in the assay on MOLT-4 leukemia, with UACC-62 melanoma, in the assay with OVCAR-4 ovarian, with U251 CNS and in the assay on COLO 205 colon was > 10 µM each time. Further, the TGI in the assay with SR leukemia, in the assay with SN12C renal and with A549 NSCLC was > 10 µM throughout.

Consider `Cc1cc(S(=O)(=O)/N=C(\[N-]S(=O)(=O)c2ccc(Cl)cc2)[n+]2ccc(N(C)C)cc2)c(S)cc1Cl`, for which the TGI with SF-268 CNS was > 100 µM; in the assay on MOLT-4 leukemia, 96.5 µM; in the assay on OVCAR-4 ovarian it was > 100 µM; in the assay with UO-31 renal, > 100 µM; in the assay with U251 CNS, > 100 µM; in the assay with SR leukemia, 3.13 µM.

On to `COc1cc(/C=C/c2cc(/C=C/c3ccc(O)c(OC)c3)nc(N)n2)ccc1O`, for which the GI50 with SF-268 CNS is 2.11 µM; in the assay with MOLT-4 leukemia, 1.01 µM; in the assay on OVCAR-4 ovarian, 1.71 µM; with UO-31 renal, 2.09 µM; in the assay on U251 CNS, 1.79 µM; with COLO 205 colon, 1.8 µM. For the same molecule, the GI50 in the assay on SR leukemia is 0.72 µM; in the assay on SN12C renal, 2.74 µM; in the assay on A549 NSCLC, 2.22 µM. For the same molecule, the TGI in the assay on SF-268 CNS was 15.6 µM; in the assay with MOLT-4 leukemia, 5.19 µM; in the assay on OVCAR-4 ovarian, 11.5 µM; with UO-31 renal, 7.58 µM; in the assay with U251 CNS, 5.69 µM; in the assay with COLO 205 colon, 3.24 µM. The TGI in the assay on SR leukemia is 3.58 µM; in the assay on SN12C renal, > 100 µM; in the assay on A549 NSCLC it was 6.04 µM.

As for `O=C(NNC(c1ccccc1)C(F)(F)F)c1ccncc1` (stereo unspecified), the TGI with SF-268 CNS, in the assay on MOLT-4 leukemia, with OVCAR-4 ovarian, in the assay on U251 CNS, with COLO 205 colon and with SR leukemia was > 100 µM each time. The TGI with SN12C renal and with A549 NSCLC was > 100 µM in each case.

For the molecule `CCN(CC)C(=S)SS(=O)(=O)c1ccc(Cl)cc1`, the TGI in the assay on SF-268 CNS is > 100 µM; in the assay on UACC-62 melanoma it was > 100 µM; in the assay on OVCAR-4 ovarian it was > 100 µM; in the assay on UO-31 renal, 35.7 µM; in the assay with U251 CNS, 30.4 µM; in the assay on COLO 205 colon, > 100 µM. Moreover, the TGI is 21.1 µM with SR leukemia, 48.2 µM in the assay on SN12C renal and > 100 µM in the assay on A549 NSCLC.

For `COc1ccc2c(c1)/C(=C\c1c(C)nc3sc(C)cn13)C(=O)N2`, the TGI in the assay on SF-268 CNS is 53.7 µM; in the assay on MOLT-4 leukemia, > 83.8 µM; in the assay with UACC-62 melanoma, 97.9 µM; with OVCAR-4 ovarian, > 100 µM; with UO-31 renal, > 100 µM; with U251 CNS, 7.2 µM. Besides, the figures for the TGI with SR leukemia, with SN12C renal and in the assay with A549 NSCLC were > 75.6 µM, > 100 µM and > 100 µM, respectively.

On to `Oc1ccccc1C=Nc1ccc(-c2nc3ccccc3[nH]2)cc1`, for which the TGI in the assay with SF-268 CNS, in the assay with MOLT-4 leukemia, with OVCAR-4 ovarian, with UO-31 renal, with U251 CNS and in the assay on COLO 205 colon was > 100 µM in each case. Also, the TGI in the assay with SR leukemia, in the assay on SN12C renal and in the assay with A549 NSCLC was > 100 µM throughout.

Regarding `CCN(CC)CCCC(C)Nc1ccnc2ccc3nn(C)nc3c12` (stereo unspecified), the TGI in the assay on SF-268 CNS, in the assay with MOLT-4 leukemia, in the assay on UACC-62 melanoma, in the assay on UO-31 renal, in the assay on U251 CNS and with COLO 205 colon was > 100 µM each time. For the same molecule, the TGI in the assay on SR leukemia, in the assay on SN12C renal and in the assay on A549 NSCLC was > 100 µM in each case.

Regarding `CN1CCCCC(C#N)(c2ccccc2)CC1` (stereo unspecified), the TGI with SF-268 CNS, in the assay with MOLT-4 leukemia, in the assay with OVCAR-4 ovarian, in the assay with UO-31 renal, in the assay with U251 CNS and in the assay with COLO 205 colon was > 100 µM in each case. Also, the TGI in the assay on SR leukemia and in the assay with A549 NSCLC was > 100 µM in each case.

For `CN(CCO)c1nc(N)cc(=O)[nH]1`, the TGI in the assay with SF-268 CNS, in the assay with MOLT-4 leukemia, with UACC-62 melanoma, in the assay with UO-31 renal, with U251 CNS and with COLO 205 colon was > 100 µM in each case. Further, the TGI in the assay with SR leukemia, in the assay with SN12C renal and in the assay with A549 NSCLC was > 100 µM throughout.

In the case of `COC(=O)C1c2c(c3ccccc3n2C(=O)OC)CCN2CCC1C(S(=O)(=O)c1ccccc1)C2=O` (stereo unspecified), the TGI in the assay with SF-268 CNS, with MOLT-4 leukemia, in the assay on UACC-62 melanoma, with UO-31 renal, in the assay on U251 CNS and with COLO 205 colon was > 100 µM each time. The TGI in the assay with SR leukemia, in the assay with SN12C renal and with A549 NSCLC was > 100 µM throughout.

Regarding `C/C(=N\Nc1nc2ccccc2n1C)c1cnccn1`, the TGI in the assay on SF-268 CNS, in the assay with MOLT-4 leukemia, with OVCAR-4 ovarian, in the assay on UO-31 renal, in the assay on U251 CNS and in the assay with COLO 205 colon was > 100 µM in each case. The TGI with SR leukemia, in the assay on SN12C renal and in the assay on A549 NSCLC was > 100 µM each time.

As to `Nc1nc(Cl)cc(OCC2(CO)CC(OCc3ccccc3)C2)n1` (stereo unspecified), the GI50 with MOLT-4 leukemia was 22 µM; with UACC-62 melanoma, 77.1 µM; in the assay on OVCAR-4 ovarian, 47.9 µM; in the assay on UO-31 renal, 40.1 µM; with U251 CNS, 55 µM; with COLO 205 colon, 72.5 µM. Besides, the GI50 was 40.6 µM with SR leukemia, 76.5 µM with SN12C renal and 43 µM with A549 NSCLC. The molecule also returned a TGI in the assay on MOLT-4 leukemia of 95.5 µM.

For the origin of these results see PubChem BioAssay (NCI).
